Active and inactive are the calls of the source. The calls are words filed in the database; no cut-off is given here.

The IC50 is the concentration needed to halve the response being measured.

Experiment [1] deals with SW-620. As to the kind of experiment: Induction of apoptosis in human SW620 cells assessed as change in nuclear morphology at IC50 after 24 hrs by fluorescent microscopy relative to control. In kind it is functional.
Experiment [2] concerns SW-620. As to the kind of experiment: Induction of apoptosis in human SW620 cells assessed as increase in PARP cleavage at 1 to 2 times IC50 after 72 hrs by immunoblot analysis relative to control. In kind it is functional, cell-based.
Experiment [3] has as its system HCT-116. The experiment is described as follows: Induction of apoptosis in human HCT116 cells assessed as increase in p53 expression at 1 to 2 times IC50 after 72 hrs by immunoblot analysis relative to control. In kind it is functional, cell-based.
The test system of experiment [4] is SW-620. As to the kind of experiment: Induction of apoptosis in human SW620 cells assessed as reduction in ERK5 expression at 1 to 2 times IC50 after 72 hrs by immunoblot analysis relative to control. In kind it is functional, cell-based. Background: A western blot detects proteins with antibodies after separation by electrophoresis.
Experiment [5] has as its system SW-620. As to the kind of experiment: Induction of apoptosis in human SW620 cells assessed as reduction in XIAP expression at 1 to 2 times IC50 after 72 hrs by immunoblot analysis relative to control. In kind it is functional, cell-based.
Experiment [6] deals with HCT-116. As to the kind of experiment: Induction of apoptosis in human HCT116 cells assessed as reduction in XIAP expression at 1 to 2 times IC50 after 72 hrs by immunoblot analysis relative to control. In kind it is functional, cell-based.
Experiment [7] concerns SW-620. The experiment is described as follows: Induction of apoptosis in human SW620 cells assessed as increase in p53 expression at 1 to 2 times IC50 after 72 hrs by immunoblot analysis relative to control. In kind it is functional, cell-based.
Experiment [8] in a line: (§1) Cytotoxicity against human HCT116 cells assessed as cell death at IC50 after 72 hrs by LDH release assay relative to control. In kind it is functional, HCT-116. In general terms: Release of lactate dehydrogenase indicates damage to the cell membrane.
The test system of experiment [9] is HCT-116. The experiment is described as follows: Induction of apoptosis in human HCT116 cells assessed as reduction in Bcl-XL expression at 1 to 2 times IC50 after 72 hrs by immunoblot analysis relative to control. In kind it is functional, cell-based.
The test system of experiment [10] is SW-620. As to the kind of experiment: Induction of cell death in human SW620 cells at 2 times IC50 after 72 hrs by Guava ViaCount assay relative to control. In kind it is functional.
In experiment [11] the test system is SW-620. The experiment is described as follows: Induction of cell death in human SW620 cells at IC50 after 72 hrs by Guava ViaCount assay relative to control. In kind it is functional.
Experiment [12] relates to SW-620. As to the kind of experiment: Cytotoxicity against human SW620 cells after 72 hrs by MTS assay. In kind it is functional, cell-based. To be noted: SW-620, 72 h.
The nature of experiment [13]: (§2) Induction of cell death in human HCT116 cells at 2 times IC50 after 72 hrs by Guava ViaCount assay relative to control. In kind it is functional, HCT-116.
Experiment [14] in a line: (§3) Cytotoxicity against human HCT116 cells assessed as cell death at 2 times IC50 after 72 hrs by LDH release assay relative to control. In kind it is functional, HCT-116.
The subject of experiment [15] is HCT-116. The experiment is described as follows: Induction of apoptosis in human HCT116 cells assessed as reduction in Akt expression at 1 to 2 times IC50 after 72 hrs by immunoblot analysis relative to control. In kind it is functional, cell-based.
Experiment [16] relates to HCT-116. As to the kind of experiment: Induction of apoptosis in human HCT116 cells assessed as change in nuclear morphology at IC50 after 24 hrs by fluorescent microscopy relative to control. In kind it is functional.
Experiment [17] can be described thus: (§4) Induction of cell death in human HCT116 cells at IC50 after 72 hrs by Guava ViaCount assay relative to control. In kind it is functional, HCT-116.
Experiment [18] concerns SW-620. As to the kind of experiment: Induction of apoptosis in human SW620 cells assessed as reduction in Bcl-XL expression at 1 to 2 times IC50 after 72 hrs by immunoblot analysis relative to control. In kind it is functional, cell-based.
Experiment [19] relates to SW-620. As to the kind of experiment: Cytotoxicity against human SW620 cells assessed as cell death at 2 times IC50 after 72 hrs by LDH release assay relative to control. In kind it is functional.
The subject of experiment [20] is HCT-116. The experiment is described as follows: Induction of apoptosis in human HCT116 cells assessed as reduction in ERK5 expression at 1 to 2 times IC50 after 72 hrs by immunoblot analysis relative to control. In kind it is functional, cell-based.
Experiment [21] concerns SW-620. The experiment is described as follows: Induction of apoptosis in human SW620 cells assessed as change in nuclear morphology at 2 times IC50 after 24 hrs by fluorescent microscopy relative to control. In kind it is functional.
Experiment [22] relates to SW-620. The experiment is described as follows: Induction of apoptosis in human SW620 cells assessed as reduction in Akt expression at 1 to 2 times IC50 after 72 hrs by immunoblot analysis relative to control. In kind it is functional, cell-based.
For experiment [23], the system named is HCT-116. As to the kind of experiment: Induction of apoptosis in human HCT116 cells assessed as reduction in Bcl-2 expression at 1 to 2 times IC50 after 72 hrs by immunoblot analysis relative to control. In kind it is functional, cell-based.
Experiment [24] deals with HCT-116. The experiment is described as follows: Induction of apoptosis in human HCT116 cells assessed as increase in PARP cleavage at 1 to 2 times IC50 after 72 hrs by immunoblot analysis relative to control. In kind it is functional, cell-based.
Experiment [25] in a line: Cytotoxicity against human HCT116 cells after 72 hrs by MTS assay. The conditions noted are these: HCT-116, 72 h. In kind it is functional, cell-based. A general note: Tetrazolium dyes change colour on reduction, which living cells bring about.
The subject of experiment [26] is HCT-116. As to the kind of experiment: Induction of apoptosis in human HCT116 cells assessed as change in nuclear morphology at 2 times IC50 after 24 hrs by fluorescent microscopy relative to control. In kind it is functional.
The test system of experiment [27] is SW-620. The experiment is described as follows: Induction of apoptosis in human SW620 cells assessed as reduction in Bcl-2 expression at 1 to 2 times IC50 after 72 hrs by immunoblot analysis relative to control. In kind it is functional, cell-based.
Experiment [28] concerns HCT-116. The experiment is described as §1. In kind it is functional.
The subject of experiment [29] is HCT-116. The description is as §2. In kind it is functional.
For experiment [30], the system named is HCT-116. The experiment is described as §3. In kind it is functional.
For experiment [31], the system named is SW-620. As to the kind of experiment: Cytotoxicity against human SW620 cells assessed as cell death at IC50 after 72 hrs by LDH release assay relative to control. In kind it is functional.
Experiment [32] concerns HCT-116. The experiment is described as §4. In kind it is functional.

For the molecule `COc1ccc2c(c1OC)[C@H](CC(C)=O)N(C)c1c-2ccc2cc3c(cc12)OCO3`, the Activity in the experiment with SW-620 [1] stood at 22%; with SW-620 [10], 65%; in the experiment on SW-620 [11] it was 34%; in experiment [13] it was 65%; with HCT-116 [16] it was 19%; in experiment [17] it was 25%. Also, the values for the Activity in the experiment on SW-620 [21] and with HCT-116 [26] were 27% and 22%, respectively. The outcome in the experiment with SW-620 [2], with HCT-116 [3], in the experiment on SW-620 [4], in the experiment on SW-620 [5], with HCT-116 [6] and in the experiment on SW-620 [7] was Active. Moreover, the outcome in the experiment with HCT-116 [9], in the experiment on HCT-116 [15], in the experiment with SW-620 [18], in the experiment on HCT-116 [20], with SW-620 [22] and in the experiment with HCT-116 [23] was Active. For the same molecule, the outcome in the experiment with HCT-116 [24] and with SW-620 [27] was Active. For the same molecule, the “fold change (FC)” value in [8] stood at 1.2; in experiment [14] it was 1.3; in the experiment on SW-620 [19], 1.1. The IC50 with SW-620 [12] is 3.8 µM; in [25] it was 2.4 µM.

`O=c1[nH]cc(F)c(=O)[nH]1` [FLUOROURACIL]: the result in the experiment with HCT-116 [28], with SW-620 [10], with SW-620 [11], with HCT-116 [29], in the experiment with HCT-116 [30] and with HCT-116 [32] was Active. The results for the IC50 (in the experiment with SW-620 [12]; in experiment [25]) were 5.3 µM and 0.5 µM, respectively. The results for the “fold change (FC)” value in the experiment with SW-620 [31] and in the experiment on SW-620 [19] were 1.1 and 1.9, respectively. The Activity is listed as 13% in the experiment with SW-620 [21] and under 10% in the experiment on HCT-116 [26].

Values taken from ChEMBL document CHEMBL3352642, “6-Acetonyldihydrochelerythrine Is a Potent Inducer of Apoptosis in HCT116 and SW620 Colon Cancer Cells” (J Nat Prod, 2014).
